Results published in paper PMC3948353 (Chemistry & biology, 2013).

How the values were obtained:
[1] = molecular target: T1, arylacetamide deacetylase-like 1 (AADACL1) (Homo sapiens, UniProt Q6PIU2); test: hydrolysis of exogenous HAG in human platelet lysate, blocked by JW480; format: cell-based
T1 sequence (Q6PIU2 1-408): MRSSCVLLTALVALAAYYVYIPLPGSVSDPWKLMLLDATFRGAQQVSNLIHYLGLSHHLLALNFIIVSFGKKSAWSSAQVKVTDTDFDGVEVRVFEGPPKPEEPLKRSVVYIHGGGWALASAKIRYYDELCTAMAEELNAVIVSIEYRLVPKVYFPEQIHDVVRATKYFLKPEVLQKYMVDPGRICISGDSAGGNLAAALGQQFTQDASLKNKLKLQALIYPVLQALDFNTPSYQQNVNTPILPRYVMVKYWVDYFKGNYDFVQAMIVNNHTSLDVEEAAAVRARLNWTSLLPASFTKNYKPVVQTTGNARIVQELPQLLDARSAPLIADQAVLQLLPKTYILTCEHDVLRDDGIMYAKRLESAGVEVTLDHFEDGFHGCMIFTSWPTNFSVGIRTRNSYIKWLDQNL

[2] = molecular target: T1, arylacetamide deacetylase-like 1 (AADACL1); test: HAG hydrolysis activity in lysates of JW480-treated human platelets; format: cell-based

Compound	hydrolysis of exogenous HAG in human platelet lysate, blocked by JW480 [1]	% inhibition at 2 μM [2]
CCCCCCCCCCCCCCCCOC[C@H](CO)OC(C)=O [HAG, 1-O-hexadecyl-2-O-acetyl-sn-glycerol]	AADACL1 also hydrolyzes HAG to its corresponding monoalkylglycerol ether (C16 MAGE) in human platelets	–
CC(C)c1ccccc1OC(=O)NCCc1ccc2ccccc2c1 [JW480]	–	90 ± 0.56% inhibition at 2
